Experimental data as given in PubChem BioAssay AID248 (DTP/NCI, 2004).
“And” between values parts separate entries of the source, which are not always exact repeats. Identical values can stand only once. Toxic doses and inconclusive results are not listed. Rule as the data show it: active = T/C of 150% or more; inactive = T/C below 125%.

System: L1210 leukemia ip in BDF1 mice, survival T/C
Assay: NCI In Vivo Anticancer Drug Screen. Data for tumor model L1210 Leukemia (intraperitoneal) in B6D2F1 (BDF1) mice
Settings: endpoint: mean survival time, higher = longer survival
Procedure, shortened: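 Transplantable tumor model; survival measured in treated vs vehicle control mice. Value = treated/control.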

[1] = dose: 10.0 mg/kg/injection, schedule: Q01DX001 (ip), vehicle: carboxymethylcellulose (CMC)
[2] = dose: 100.0 mg/kg/injection, schedule: Q04DX003 (ip), vehicle: saline with Tween-80
[3] = dose: 100.0 mg/kg/injection, schedule: Q01DX009 (ip), vehicle: Klucel (hydroxypropylcellulose) (HPC)
[4] = dose: 75.0 mg/kg/injection, schedule: Q01DX001 (ip), vehicle: saline

Measured: T/C

CCOc1cc(/C=N\Nc2nncn2N)ccc1N(CCCl)CCCl
inactive: dose: 0.5 mg/kg/injection, schedule: Q01DX015 (ip), vehicle: carboxymethylcellulose (CMC) 109 % of control | dose: 1.0 mg/kg/injection, schedule: Q01DX015 (ip), vehicle: carboxymethylcellulose (CMC) 111 % of control | dose: 2.0 mg/kg/injection, schedule: Q01DX015 (ip), vehicle: carboxymethylcellulose (CMC) 116 % of control | dose: 4.0 mg/kg/injection, schedule: Q01DX015 (ip), vehicle: carboxymethylcellulose (CMC) 101 % of control and 109 % of control | dose: 5.0 mg/kg/injection, schedule: Q01DX001 (ip), vehicle: carboxymethylcellulose (CMC) 98 % of control and 117 % of control | dose: 7.0 mg/kg/injection, schedule: Q01DX015 (ip), vehicle: carboxymethylcellulose (CMC) 107 % of control and 90 % of control | [1] 101 % of control | dose: 12.0 mg/kg/injection, schedule: Q01DX015 (ip), vehicle: carboxymethylcellulose (CMC) 98 % of control and 117 % of control | dose: 20.0 mg/kg/injection, schedule: Q01DX001 (ip), vehicle: carboxymethylcellulose (CMC) 95 % of control and 106 % of control | dose: 20.0 mg/kg/injection, schedule: Q01DX015 (ip), vehicle: carboxymethylcellulose (CMC) 120 % of control | dose: 40.0 mg/kg/injection, schedule: Q01DX001 (ip), vehicle: carboxymethylcellulose (CMC) 106 % of control

CS(=O)(=O)NC[C@H](Cl)[C@@H](Cl)CNS(C)(=O)=O
inactive: dose: 100.0 mg/kg/injection, schedule: Q01DX001 (ip), vehicle: saline 100 % of control | dose: 200.0 mg/kg/injection, schedule: Q01DX001 (ip), vehicle: saline 102 % of control | dose: 400.0 mg/kg/injection, schedule: Q01DX001 (ip), vehicle: saline 91 % of control

N=C(CCCc1ccccc1)SCc1ccccc1
inactive: dose: 50.0 mg/kg/injection, schedule: Q01DX009 (ip), vehicle: saline with Tween-80 103 % of control | dose: 50.0 mg/kg/injection, schedule: Q04DX003 (ip), vehicle: saline with Tween-80 94 % of control | dose: 100.0 mg/kg/injection, schedule: Q01DX001 (ip), vehicle: saline with Tween-80 102 % of control | dose: 100.0 mg/kg/injection, schedule: Q01DX009 (ip), vehicle: saline with Tween-80 92 % of control | [2] 93 % of control | dose: 200.0 mg/kg/injection, schedule: Q01DX001 (ip), vehicle: saline with Tween-80 102 % of control

O=[N+]([O-])c1cc(S(=O)(=O)F)ccc1F
inactive: dose: 0.07 mg/kg/injection, schedule: Q01DX009 (ip), vehicle: carboxymethylcellulose (CMC) 97 % of control | dose: 0.15 mg/kg/injection, schedule: Q01DX009 (ip), vehicle: carboxymethylcellulose (CMC) 100 % of control | dose: 0.31 mg/kg/injection, schedule: Q01DX009 (ip), vehicle: carboxymethylcellulose (CMC) 100 % of control | dose: 0.31 mg/kg/injection, schedule: Q04DX003 (ip), vehicle: carboxymethylcellulose (CMC) 92 % of control | dose: 0.46 mg/kg/injection, schedule: Q01DX009 (ip), vehicle: carboxymethylcellulose (CMC) 103 % of control | dose: 0.62 mg/kg/injection, schedule: Q04DX003 (ip), vehicle: carboxymethylcellulose (CMC) 92 % of control | dose: 0.7 mg/kg/injection, schedule: Q01DX009 (ip), vehicle: carboxymethylcellulose (CMC) 96 % of control | dose: 1.05 mg/kg/injection, schedule: Q01DX009 (ip), vehicle: carboxymethylcellulose (CMC) 92 % of control | dose: 1.5 mg/kg/injection, schedule: Q01DX009 (ip), vehicle: other 94 % of control | dose: 2.3 mg/kg/injection, schedule: Q01DX009 (ip), vehicle: other 89 % of control | dose: 3.4 mg/kg/injection, schedule: Q01DX009 (ip), vehicle: other 89 % of control | dose: 5.0 mg/kg/injection, schedule: Q01DX009 (ip), vehicle: other 87 % of control | [1] 90 % of control

CCCCCCCCCCCCCCCC[N+]1(Cc2ccccc2)CCOCC1
inactive: dose: 50.0 mg/kg/injection, schedule: Q01DX009 (ip), vehicle: Klucel (hydroxypropylcellulose) (HPC) 99 % of control | [3] 99 % of control

O=[N+]([O-])c1ccc(/C=N/c2nn[nH]n2)cc1 (tested in a mixture with another compound)
inactive: dose: 100.0 mg/kg/injection, schedule: Q04DX003 (ip), vehicle: saline 98 % of control | dose: 200.0 mg/kg/injection, schedule: Q04DX003 (ip), vehicle: saline 100 % of control | dose: 400.0 mg/kg/injection, schedule: Q04DX003 (ip), vehicle: saline 96 % of control

CC(C)CCCCCc1ccc(OCCOc2ccc(C(=O)Nc3ccc(S(=O)(=O)F)cc3[N+](=O)[O-])cc2)cc1
inactive: dose: 100.0 mg/kg/injection, schedule: Q01DX001 (ip), vehicle: Klucel (hydroxypropylcellulose) (HPC) 100 % of control | dose: 200.0 mg/kg/injection, schedule: Q01DX001 (ip), vehicle: Klucel (hydroxypropylcellulose) (HPC) 94 % of control | dose: 400.0 mg/kg/injection, schedule: Q01DX001 (ip), vehicle: Klucel (hydroxypropylcellulose) (HPC) 94 % of control

CCCCCCCCCCCCCCCCCOC(=O)CCCCCCCCCCCCC
inactive: [3] 91 % of control | [2] 90 % of control | dose: 200.0 mg/kg/injection, schedule: Q01DX009 (ip), vehicle: Klucel (hydroxypropylcellulose) (HPC) 96 % of control | dose: 200.0 mg/kg/injection, schedule: Q04DX003 (ip), vehicle: saline with Tween-80 88 % of control | dose: 400.0 mg/kg/injection, schedule: Q01DX009 (ip), vehicle: Klucel (hydroxypropylcellulose) (HPC) 98 % of control | dose: 400.0 mg/kg/injection, schedule: Q04DX003 (ip), vehicle: saline with Tween-80 92 % of control

Cc1cccc(C(=O)O)c1CC1NCCC2c3ccccc3NC12 (stereo not drawn)
inactive: [4] 98 % of control | dose: 150.0 mg/kg/injection, schedule: Q01DX001 (ip), vehicle: saline 100 % of control

O=C(O)CC(=O)c1ccc(I)cc1
inactive: [4] 94 % of control

Cc1ccc(OC(C)C(=O)O)c(C)c1 (stereo not drawn)
inactive: dose: 100.0 mg/kg/injection, schedule: Q04DX002 (ip), vehicle: Klucel (hydroxypropylcellulose) (HPC) 104 % of control | dose: 200.0 mg/kg/injection, schedule: Q04DX002 (ip), vehicle: Klucel (hydroxypropylcellulose) (HPC) 98 % of control | dose: 400.0 mg/kg/injection, schedule: Q04DX002 (ip), vehicle: Klucel (hydroxypropylcellulose) (HPC) 95 % of control
